Measured values taken from US6605305B2, “Plant drug for treatment of liver disease” (priority 2001, dated 2003).
Marks after values point to notes of the source that are not given here.

What was measured:
[1] = tested on: indomethacin induced small intestine mucosal damage; experiment: Indomethacin induced small intestine mucosal damage; assay type: in vivo, rats
Experimental: The experiment of animal was performed as previously described. Mucosal damage in gastrointestinal tract was induced ethanol or indomethacin administration. In ethanol-treated animals, after 24 hours of fasting, ethanol was given orally (70%, v/v, 10 ml/kg) by means of an oral gastric. Mucosal damage was assessed by measurement of areas with hemorrhagic lesion. In the indomethacin ulcer model, rats were refed for 1 hour after 24 hours of fasting. Thirty minutes later, indomethacin (15 mg/kg) was administered subcutaneously and rats were killed 24 hours later. Mucosal lesions were again measured along the greatest diameter. […] SCS administration was repeated again 6 hours after indomethacin injection.

[2] = tested on: 3924A; experiment: DNA synthesis of cancer cells ([^3H]TdR incorporation), 3924A; assay type: in vivo, rats
Experimental: (§1) The method of animal and liver was described previously. Ascitric hepatoma, S180-ν, the transplantable 3924 used. After treatment with SCS (100 mg/kg), rats were injected with [^3H]-TdR (10 μc/μmole). Two hours after injection the animals were decapitated and examined. Livers and tumors were rapidly removed and blotted on filter paper. Tumors were carefully dissected free of necrotic, hemorrhagic, and nontumorous material. Tissues were minced with sharp scissors and 2 gm. DNA was prepared from the tissues. The radioactivity of the DNA was determined by liquid scintillation counting.
(§2) The incorporation of thymidine into DNA ws expressed as cpm/mg of DNA or cpm/gm of tissue.

[3] = tested on: YAC-1; experiment: NK cell activity of mice (^51Cr release), YAC-1 target cells; assay type: in vivo; conditions: oral dose of 100 mg/kg
[4] = tested on: c-myc RNA; experiment: Inhibition of oncogene expression in ML-1 cells (northern blot), c-myc; assay type: cell-based, Human
Experimental: (§3) Human myeloblastic leukemic cells (ML-1) were maintained in suspension culture in RPMI 1640 medium supplemented with 7.5% heat-inactivated FBS. Cells growth and viability were assayed by hemocytometer using trypan-blue dye exclusion.
(§4) RNA was isolated by the CsCl gradient modification. RNA pellets were washed twice by reprecipitation in ethanol and quantitated by absorbency at […]. RNA analyzed by electrophoresis of 15 μg of RNA through 1.2% agarose formaldehyde gels followed by northern blot transfer to nitrocellulose.
(§5) Single-standard uniformly labeled DNA probes were prepared. Probe of c-myc was a 1.7 Kb cla-Eco RI restriction fragment containing the 3′exon region of human c-myc and probe of c-myb was 1.0 Kb myb-specific Bam HI fragment. Probes for n-ras contained DNA fragments using a modification of the PCR technique. Probes for myb, myc and n-ras were isolated. The isolated fragments were labeled to high specific activity with [α^32P]-dCTP (3000 ci/mmol).
(§6) Prehybridization of the filter was performed. The hybridization mixer contained 50,000 cpm of probe. The probes were hybridized at 58° C. in 15 mM NaCl, […] sodium citrate for 3 hours. After hybridization, they were exposed to XAR-5 film. Oncogene expression was quantitated by densitometer scanning of the autoradiography.

[5] = tested on: RBL-5; experiment: NK cell activity of mice (^51Cr release), RBL-5 target cells; assay type: in vivo; conditions: oral dose of 100 mg/kg
[6] = tested on: Benzpyrene hydroxylase; experiment: Hepatic microsomal monooxygenases: benzpyrene hydroxylase; assay type: in vivo; conditions: rat liver microsomes, treatment group
[7] = tested on: Aflatoxin B1 induced liver cancer; set-up: species or system rats; conditions: rat, in vivo
[8] = tested on: Aminopyrine demethylase; experiment: Hepatic microsomal monooxygenases: aminopyrine demethylase; assay type: in vivo; conditions: rat liver microsomes, treatment group
[9] = tested on: GRD; experiment: Hepatic GRD activity in CCl4-treated mice; assay type: in vivo
Experimental: (§7) Female Balb/c mice (22-24 g) were maintained at 20° C. and a 12 hours light/dark cycle. The food and water allowed adliboti. Mice were randomly assigned to groups of 20 individuals. Twenty-four hours after the last dosing, animals were administered an oral dose of CCl4 (1%, v/v, in olive oil) at 1.0 mmol/kg. In treatment group, mice were treated intragastrically with SCS at daily dose of 50 mg/kg for 4 days. Control animals were given the vehicle (i.e. olive oil, 1 mL/kg). Twenty-four hours after intoxication, heparinized blood samples were drawn from ether-anesthetized mice by cardiac puncture, and the animals were killed by cardiac excision thereafter.
The rats were starved overnight before decapitation. The livers were perfused in situ with ice-cold 1.15% KCl solution. Tissue homogenate was prepared by homogenizing 1 g of hepatic tissue sample in 10 mL ice-cold homogenizing buffer with two 10-secbursts of atissue disintegrator at 135,000 rpm. Hepatic mitochondrial fraction was prepared by differential centrifugation in isotonic buffer ([…], 0.1 mM EDTA, 5 mM Tris, pH 7.4).
The experiments of animal and livers were performed as previously described. Glutathione (GSH) level was determined by an HPLC method. In the present study, the effect of SCS on GHS and GRD were examined.

[10] = tested on: S-180; experiment: DNA synthesis of cancer cells ([^3H]TdR incorporation), S-180; assay type: in vivo, rats
Experimental: as §1, §2

[11] = tested on: c-myb RNA; experiment: Inhibition of oncogene expression in ML-1 cells (northern blot), c-myb; assay type: cell-based, Human
Experimental: as §3, §4, §5, §6

[12] = tested on: bovine aortic smooth muscle cell modified LDL; experiment: Cell-modified LDL oxidation (MDA); assay type: cell-based; conditions: LDL + 100 μg SCS/ml, 24 hours, 37° C.
[13] = tested on: mice; experiment: Acute toxicity in mice; assay type: in vivo
From the text: a. Route of Administration: intravenous and intraperiotoneal injection
b. Route of administration: the oral route

[14] = tested on: Cytochrome P-450; conditions: rat, in vivo
[15] = tested on: DNA synthesis of liver; experiment: Liver DNA synthesis ([^3H] thymidine incorporation) in CCl4-intoxicated mice; assay type: in vivo; conditions: SCS 50 mg/kg intragastrically daily for 4 days
Experimental: as §7
[^3H] thymidine (10 μCi/100 g body weight) was injected intraperitoneally and mice were killed 2 hours after the infection. Mice were killed at 12, 24, 36, 48, 72 and 120 hours and their livers were removed.
DNA synthesis was determined by the incorporation of [^3H] thymidice into the acid-insoluble fraction. The liver was homogenized in 4 volumes of distilled water. Two ml of homogenate were added to an equal volume of 10% trichloroacetic acid (TCA) solution and centrifuged at 900 g for 10 minutes. The resultant pellet was washed with 5% TCA twice and suspended again in 2 ml of 5% TCA solution. The suspension was incubated at 90° C. for 20 minutes and centrifuged at 900 g for 10 minutes. One ml of the supernatant was put into a scintillation vial and 10 ml of a toluene-based scintillation fluid containing DPO (0.4%), POPOP (0.01%), and Triton X-100 (30%) as added. The radioactivity was counted in a Packard Tri-Carb Liquid scintillation counter. The DNA content of the supernatant was assayed by the method of using calf thymus DNA as the standard.

SMILES: COc1cc2c(c(OC)c1OC)-c1c(cc(OC)c(OC)c1OC)C[C@](C)(O)[C@@H](C)C2 [SCS, Schisandrin]
- Lesion area (mm^2) Small intestine ([1]; SCS 10 mg/kg): 350 ± 38* mm^2
- Lesion area (mm^2) Small intestine ([1]; SCS 25 mg/kg): 321 ± 33** mm^2
- Lesion area (mm^2) Small intestine ([1]; SCS 50 mg/kg): 295 ± 30** mm^2
- Tissue inhibition rate (%) ([2]; 3924A t versus C): 52.6%
- [^3H]TdR into DNA × 10^−3 cm/mg ([2]; 3924A t, SCS 100 mg/kg): 38.7 ± 4.8 × 10^−3 cm/mg
- % Specific lysis (mean ± SEM) YAC-1 ([3]; effector/target 50:1): 45.0 ± 3.6 %
- % Specific lysis (mean ± SEM) YAC-1 ([3]; effector/target 100:1): 64.0 ± 7.1%
- Inhibition (%) c-myc RNA ([4]; SCS concentration 10 ng/ml): 70.5 ± 8.5%
- Inhibition (%) c-myc RNA ([4]; SCS concentration 50 ng/ml): 70.8 ± 8.9%
- % Specific lysis (mean ± SEM) RBL-5 ([5]; effector/target 50:1): 12.1 ± 1.2 %
- % Specific lysis (mean ± SEM) RBL-5 ([5]; effector/target 100:1): 19.8 ± 2.0 %
- Benzpyrene hydroxylase [6]: 51.8 ± 6.5 nmol/mg protein
- % of iron-excluding area in liver section [7]: 2.2 ± 0.2 %
- Inhibition % [7]: 87.8%
- Aminopyrine demethylase [8]: 180.0 ± 20 nmol HCHO/mg protein
- GRD ([9]; CCl4 + SCS): 50.6 ± 6.0 mU/mg protein
- GRD activity T/C ([9]; treatment versus CCl4 control): 347%
- GRD activity T/N ([9]; treatment versus normal group): 145%
- Tissue inhibition rate (%) ([10]; S-180 T versus C): 43.2%
- [^3H]TdR into DNA × 10^−3 cm/mg ([10]; S-180 T, SCS 100 mg/kg): 39.8 ± 5.2 × 10^−3 cm/mg
- Inhibition (%) c-myb RNA ([11]; SCS concentration 10 ng/ml): 65.0 ± 5.7%
- Inhibition (%) c-myb RNA ([11]; SCS concentration 50 ng/ml): 67.7 ± 6.8%
- MDA (nmol/mg protein, x ± s) [12]: 2.80 ± 0.29 nmol/mg protein
- LD50 ([13]; intragastric administration): 5200 mg/kg
- LD50 ([13]; intraperitoneal injection): 1250 mg/kg
- LD50 intravenous versus dose used in clinical trials for human being ([13]; intravenous): > 100 times
- LD50 ([13]; intravenous injection): 720 mg/kg
- Cytochrome P-450 [14]: 2.80 ± 0.30 nmol/mg protein
- DNA synthesis (cpm/mg DNA) ([15]; 12 h): 6520 ± 678 cpm/mg DNA
- DNA synthesis (cpm/mg DNA) ([15]; 24 h): 12305 ± 1405 cpm/mg DNA
- DNA synthesis (cpm/mg DNA) ([15]; 48 h): 8910 ± 920 cpm/mg DNA
